This data set in a line: recombinant UMI read abundance after kanamycin selection (control-corrected) (log10(CPM+1)); higher = more efficient recombination; extreme values may be limits of the assay; sequences stand for … in AGTGCAGAGAAAATCGGCCAGTTTTCTCTGCCTGCAGTCCGCATGCCGTGGGACCCCTTGGGTTCTAACCTGTTGCCTAGATTTATGCAGCGGACTGCCTTTCTCCCAAAGTGATAAACCGG…AGGTTGGTTTCACT; site = the 11-nt donor. The procedure, abridged:
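Sequencing read counts were converted to CPM, averaged over two replicates and scaled by control-derived factors. Results are given as log10(CPM+1). The reads covered the donor–target junction of recombinant UMIs from a pooled Escherichia coli screen of donor and donor-binding-loop pairs for the IS621 bridge recombinase.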
In the case of “CGAATCGCATGGACCGGTTTTCCCGGTAATCCGTATTTGAT (site CGAATCGCTAT)”, the “recombinant UMI read abundance (log10)” value is 2.72.

Turning to “CGAATGGCATGGACCGGTTTTCCCGGTAATCCGTATTTGCG (site GAGGGCACTAT)”, the “recombinant UMI read abundance (log10)” value came to 0.0326.

On to “CGACCAACATGGACCGGTTTTCCCGGTAATCCGTATTTGCT (site CGACCAACTAG)”, for which the “recombinant UMI read abundance (log10)” value was found to be 2.28.

As for “CGACCAACATGGACCGGTTTTCCCGGTAATCCGTATTTGCT (site CGATCATCTAG)”, the “recombinant UMI read abundance (log10)” value was 0.

Regarding “CGACCCGCATGGACCGGTTTTCCCGGTAATCCGTATTTGCG (site CGACCCGCTCG)”, the “recombinant UMI read abundance (log10)” value was 0.0234.

Consider “CGACGACCATGGACCGGTTTTCCCGGTAATCCGTATTTGAA (site CGACGACCTTT)”, for which the “recombinant UMI read abundance (log10)” value was 0.00772.

For the sequence “CGACGGTCATGGACCGGTTTTCCCGGTAATCCGTATTTGCC (site TATGCCGCTAT)”, the “recombinant UMI read abundance (log10)” value came out at 0.

Consider “CGACTAACATGGACCGGTTTTCCCGGTAATCCGTATTTGGA (site CAACTAACTTC)”, for which the “recombinant UMI read abundance (log10)” value came out at 1.44.

On to “CGACTAACATGGACCGGTTTTCCCGGTAATCCGTATTTGGA (site CCACTAACTTC)”, for which the “recombinant UMI read abundance (log10)” value is 0.226.

Regarding “CGACTAACATGGACCGGTTTTCCCGGTAATCCGTATTTGGA (site CGACTAACTTC)”, the “recombinant UMI read abundance (log10)” value is 1.74.

Take “CGACTAACATGGACCGGTTTTCCCGGTAATCCGTATTTGGA (site CTACTAACTTC)”: the “recombinant UMI read abundance (log10)” value came to 0.554.

“CGAGAACCATGGACCGGTTTTCCCGGTAATCCGTATTTGGG (site CGAGAACCTCC)”: the “recombinant UMI read abundance (log10)” value came out at 0.

With “CGAGAACCATGGACCGGTTTTCCCGGTAATCCGTATTTGGG (site CGAGCACCTCC)”, the “recombinant UMI read abundance (log10)” value is 0.00673.

Take “CGAGAACCATGGACCGGTTTTCCCGGTAATCCGTATTTGGG (site CGAGGACCTCC)”: the “recombinant UMI read abundance (log10)” value was 0.0198.

For the sequence “CGAGAACCATGGACCGGTTTTCCCGGTAATCCGTATTTGGG (site CGAGTACCTCC)”, the “recombinant UMI read abundance (log10)” value is 0.00635.

Regarding “CGAGAAGCATGGACCGGTTTTCCCGGTAATCCGTATTTGCT (site CGAGAAGCTAG)”, the “recombinant UMI read abundance (log10)” value came to 2.17.

Take “CGAGAAGCATGGACCGGTTTTCCCGGTAATCCGTATTTGTC (site CGAGAAGCTGA)”: the “recombinant UMI read abundance (log10)” value worked out at 2.25.

For the sequence “CGAGAGTCATGGACCGGTTTTCCCGGTAATCCGTATTTGCC (site CGAGAGTCTGG)”, the “recombinant UMI read abundance (log10)” value worked out at 3.37.

With “CGAGAGTCATGGACCGGTTTTCCCGGTAATCCGTATTTGCC (site CGCGAGTCTGG)”, the “recombinant UMI read abundance (log10)” value amounted to 0.

For “CGAGAGTCATGGACCGGTTTTCCCGGTAATCCGTATTTGCC (site CGGGAGTCTGG)”, the “recombinant UMI read abundance (log10)” value was 1.46.

“CGAGAGTCATGGACCGGTTTTCCCGGTAATCCGTATTTGCC (site CGTGAGTCTGG)”: the “recombinant UMI read abundance (log10)” value amounted to 2.4.

For “CGAGCGACATGGACCGGTTTTCCCGGTAATCCGTATTTGTA (site CGAGCGACTTA)”, the “recombinant UMI read abundance (log10)” value was determined as 2.3.

Consider “CGAGGACCATGGACCGGTTTTCCCGGTAATCCGTATTTGAA (site CGAGGACCTTT)”, for which the “recombinant UMI read abundance (log10)” value came out at 0.0106.

Turning to “CGAGGACCATGGACCGGTTTTCCCGGTAATCCGTATTTGGC (site CGAGGACCTAC)”, the “recombinant UMI read abundance (log10)” value is 0.0204.

As for “CGAGGACCATGGACCGGTTTTCCCGGTAATCCGTATTTGGC (site CGAGGACCTCC)”, the “recombinant UMI read abundance (log10)” value is 0.0246.

In the case of “CGAGGACCATGGACCGGTTTTCCCGGTAATCCGTATTTGGC (site CGAGGACCTGC)”, the “recombinant UMI read abundance (log10)” value came to 0.

On to “CGAGGACCATGGACCGGTTTTCCCGGTAATCCGTATTTGGC (site CGAGGACCTTC)”, for which the “recombinant UMI read abundance (log10)” value was 0.013.

For the sequence “CGAGGCCCATGGACCGGTTTTCCCGGTAATCCGTATTTGGG (site CGAGGACCTCC)”, the “recombinant UMI read abundance (log10)” value is 0.0197.

In the case of “CGAGGCCCATGGACCGGTTTTCCCGGTAATCCGTATTTGGG (site CGAGGCCCTCC)”, the “recombinant UMI read abundance (log10)” value is 0.0196.

For the sequence “CGAGGCCCATGGACCGGTTTTCCCGGTAATCCGTATTTGGG (site CGAGGGCCTCC)”, the “recombinant UMI read abundance (log10)” value turned out to be 0.016.

Take “CGAGGCCCATGGACCGGTTTTCCCGGTAATCCGTATTTGGG (site CGAGGTCCTCC)”: the “recombinant UMI read abundance (log10)” value worked out at 0.00542.

Take “CGAGTATCATGGACCGGTTTTCCCGGTAATCCGTATTTGCA (site ACAGTATCTTG)”: the “recombinant UMI read abundance (log10)” value stood at 2.08.

For the sequence “CGAGTATCATGGACCGGTTTTCCCGGTAATCCGTATTTGCA (site CGAGTATCTTG)”, the “recombinant UMI read abundance (log10)” value came to 3.

On to “CGAGTCCCATGGACCGGTTTTCCCGGTAATCCGTATTTGTG (site GTCAGTTCTAG)”, for which the “recombinant UMI read abundance (log10)” value was found to be 0.

Regarding “CGATAAACATGGACCGGTTTTCCCGGTAATCCGTATTTGCT (site CGATAAACTAG)”, the “recombinant UMI read abundance (log10)” value came to 2.83.

As to “CGATAAACATGGACCGGTTTTCCCGGTAATCCGTATTTGCT (site CGATCATCTAG)”, the “recombinant UMI read abundance (log10)” value is 0.

With “CGATACACATGGACCGGTTTTCCCGGTAATCCGTATTTGCT (site CGATACACTAG)”, the “recombinant UMI read abundance (log10)” value is 2.54.

Turning to “CGATAGTCATGGACCGGTTTTCCCGGTAATCCGTATTTGCC (site CGATAGTCTGG)”, the “recombinant UMI read abundance (log10)” value was determined as 2.66.

Regarding “CGATCAACATGGACCGGTTTTCCCGGTAATCCGTATTTGCG (site CGATCAACTCG)”, the “recombinant UMI read abundance (log10)” value worked out at 0.894.

For “CGATCAACATGGACCGGTTTTCCCGGTAATCCGTATTTGCG (site CGATCATCTAG)”, the “recombinant UMI read abundance (log10)” value turned out to be 0.

Turning to “CGATCAGCATGGACCGGTTTTCCCGGTAATCCGTATTTGTT (site CGATCAGCTAA)”, the “recombinant UMI read abundance (log10)” value was found to be 1.59.

Take “CGATCAGCATGGACCGGTTTTCCCGGTAATCCGTATTTGTT (site CGATCATCTAG)”: the “recombinant UMI read abundance (log10)” value amounted to 0.

Turning to “CGATCCTCATGGACCGGTTTTCCCGGTAATCCGTATTTGCG (site CGATCATCTAG)”, the “recombinant UMI read abundance (log10)” value is 0.

Take “CGATCCTCATGGACCGGTTTTCCCGGTAATCCGTATTTGCG (site CGATCCTCTCG)”: the “recombinant UMI read abundance (log10)” value stood at 2.64.

On to “CGATCCTCATGGACCGGTTTTCCCGGTAATCCGTATTTGCT (site CGATCATCTAG)”, for which the “recombinant UMI read abundance (log10)” value came out at 0.

As to “CGATCCTCATGGACCGGTTTTCCCGGTAATCCGTATTTGCT (site CGATCCTCTAG)”, the “recombinant UMI read abundance (log10)” value stood at 2.82.

Take “CGATCCTCATGGACCGGTTTTCCCGGTAATCCGTATTTGCT (site CGATCGTCTAG)”: the “recombinant UMI read abundance (log10)” value came to 0.

With “CGATCCTCATGGACCGGTTTTCCCGGTAATCCGTATTTGCT (site CGATCTTCTAG)”, the “recombinant UMI read abundance (log10)” value was 0.

Turning to “CGATCGACATGGACCGGTTTTCCCGGTAATCCGTATTTGAT (site CGATCGACTAA)”, the “recombinant UMI read abundance (log10)” value amounted to 0.0179.

For the sequence “CGATCGACATGGACCGGTTTTCCCGGTAATCCGTATTTGAT (site CGATCGACTAC)”, the “recombinant UMI read abundance (log10)” value was determined as 0.

With “CGATCGACATGGACCGGTTTTCCCGGTAATCCGTATTTGAT (site CGATCGACTAG)”, the “recombinant UMI read abundance (log10)” value came to 0.

Consider “CGATCGACATGGACCGGTTTTCCCGGTAATCCGTATTTGAT (site CGATCGACTAT)”, for which the “recombinant UMI read abundance (log10)” value worked out at 0.807.

For “CGATCGCCATGGACCGGTTTTCCCGGTAATCCGTATTTGTT (site CGATCGACTAA)”, the “recombinant UMI read abundance (log10)” value came to 0.0236.

On to “CGATCGCCATGGACCGGTTTTCCCGGTAATCCGTATTTGTT (site CGATCGCCTAA)”, for which the “recombinant UMI read abundance (log10)” value stood at 0.142.

For the sequence “CGATCGCCATGGACCGGTTTTCCCGGTAATCCGTATTTGTT (site CGATCGGCTAA)”, the “recombinant UMI read abundance (log10)” value stood at 0.

Consider “CGATCGCCATGGACCGGTTTTCCCGGTAATCCGTATTTGTT (site CGATCGTCTAA)”, for which the “recombinant UMI read abundance (log10)” value worked out at 1.46.

In the case of “CGATCGTCATGGACCGGTTTTCCCGGTAATCCGTATTTGCT (site CGATCATCTAG)”, the “recombinant UMI read abundance (log10)” value stood at 2.15.

Turning to “CGATCGTCATGGACCGGTTTTCCCGGTAATCCGTATTTGCT (site CGATCCTCTAG)”, the “recombinant UMI read abundance (log10)” value is 0.

Regarding “CGATCGTCATGGACCGGTTTTCCCGGTAATCCGTATTTGCT (site CGATCGTCTAG)”, the “recombinant UMI read abundance (log10)” value amounted to 2.46.

In the case of “CGATCGTCATGGACCGGTTTTCCCGGTAATCCGTATTTGCT (site CGATCTTCTAG)”, the “recombinant UMI read abundance (log10)” value turned out to be 0.

Regarding “CGATCTACATGGACCGGTTTTCCCGGTAATCCGTATTTGTT (site CGATCAACTAA)”, the “recombinant UMI read abundance (log10)” value was found to be 0.012.

For “CGATCTACATGGACCGGTTTTCCCGGTAATCCGTATTTGTT (site CGATCCACTAA)”, the “recombinant UMI read abundance (log10)” value is 0.0103.

In the case of “CGATCTACATGGACCGGTTTTCCCGGTAATCCGTATTTGTT (site CGATCGACTAA)”, the “recombinant UMI read abundance (log10)” value was 0.00912.

For “CGATCTACATGGACCGGTTTTCCCGGTAATCCGTATTTGTT (site CGATCTACTAA)”, the “recombinant UMI read abundance (log10)” value was 0.246.

As to “CGATCTGCATGGACCGGTTTTCCCGGTAATCCGTATTTGCT (site CGATCATCTAG)”, the “recombinant UMI read abundance (log10)” value was determined as 0.

For the sequence “CGATCTGCATGGACCGGTTTTCCCGGTAATCCGTATTTGCT (site CGATCTGCTAG)”, the “recombinant UMI read abundance (log10)” value is 1.72.

Turning to “CGATGACCATGGACCGGTTTTCCCGGTAATCCGTATTTGCT (site CGATCATCTAG)”, the “recombinant UMI read abundance (log10)” value was 0.

Consider “CGATGACCATGGACCGGTTTTCCCGGTAATCCGTATTTGCT (site CGATGACCTAG)”, for which the “recombinant UMI read abundance (log10)” value was 0.

(Values after the supplement of paper PMC11208160.)
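Further: IS621 bridge recombinase in Escherichia coli cells against a fixed T5 target plasmid.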
